Assay results: ChEMBL document CHEMBL3864191 (ACS Med Chem Lett, 2016)
Blank lines part the entries; values can stand above or below the compound they belong to.

Columns and labels:
[1] = Cytotoxicity against human DU145 cells assessed as reduction in cell viability after 72 hrs by MTT assay; type: functional, cell-based, DU-145; details: Homo sapiens, DU-145, 72 h
[2] = Cytotoxicity against mouse CT26 cells assessed as reduction in cell viability after 72 hrs by MTT assay; type: functional, cell-based; details: Mus musculus, CT26, 72 h
[3] = target: Induced myeloid leukemia cell differentiation protein Mcl-1 (Homo sapiens, UniProt Q07820); test: Inhibition of FAM-Bid binding to human MCL1 expressed in Escherichia coli BL21 after 30 mins by fluorescence polarization assay
Sequence of Induced myeloid leukemia cell differentiation protein Mcl-1 (Q07820 whole entry): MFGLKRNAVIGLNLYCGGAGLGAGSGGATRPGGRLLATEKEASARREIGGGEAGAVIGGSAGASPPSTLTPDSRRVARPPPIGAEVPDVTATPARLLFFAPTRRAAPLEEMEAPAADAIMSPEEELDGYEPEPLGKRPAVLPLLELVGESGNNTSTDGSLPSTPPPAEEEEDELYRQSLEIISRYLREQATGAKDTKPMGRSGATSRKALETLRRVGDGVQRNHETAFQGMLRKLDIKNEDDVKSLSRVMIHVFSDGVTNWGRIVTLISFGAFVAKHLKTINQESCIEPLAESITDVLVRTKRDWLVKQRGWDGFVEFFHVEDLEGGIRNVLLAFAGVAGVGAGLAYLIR

[4] = target: Apoptosis regulator Bcl-2 (Homo sapiens, UniProt P10415); test: Inhibition of FAM-Bid binding to human BCL2 expressed in Escherichia coli BL21 after 30 mins by fluorescence polarization assay
Sequence of Apoptosis regulator Bcl-2 (P10415 whole entry): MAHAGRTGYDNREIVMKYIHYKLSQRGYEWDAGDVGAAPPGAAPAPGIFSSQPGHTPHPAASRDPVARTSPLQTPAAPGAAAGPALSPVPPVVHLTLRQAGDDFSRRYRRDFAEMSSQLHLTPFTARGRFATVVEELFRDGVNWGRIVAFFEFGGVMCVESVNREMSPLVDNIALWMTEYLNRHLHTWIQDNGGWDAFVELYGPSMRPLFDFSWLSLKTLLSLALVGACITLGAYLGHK

MCF7 = test: Potency index, ratio of (-)-gossypol IC50 to compound IC50 for human MCF7 cells; type: functional
[5] = Cytotoxicity against human leukemia cells assessed as cell growth inhibition after 48 hrs by SRB assay; type: functional
[6] = Cytotoxicity against human non-small cell lung cancer cells assessed as cell growth inhibition after 48 hrs by SRB assay; type: functional; details: Cancer cell lines
[7] = Cytotoxicity against human colon cancer cells assessed as cell growth inhibition after 48 hrs by SRB assay; type: functional; details: Cancer cell lines
[8] = Cytotoxicity against human CNS cancer cells assessed as cell growth inhibition after 48 hrs by SRB assay; type: functional; details: Cancer cell lines
[9] = Cytotoxicity against human melanoma cells assessed as cell growth inhibition after 48 hrs by SRB assay; type: functional
[10] = Cytotoxicity against human ovarian cancer cells assessed as cell growth inhibition after 48 hrs by SRB assay; type: functional; details: Cancer cell lines
[11] = Cytotoxicity against human renal cancer cells assessed as cell growth inhibition after 48 hrs by SRB assay; type: functional; details: Cancer cell lines
[12] = Cytotoxicity against human prostate cancer cells assessed as cell growth inhibition after 48 hrs by SRB assay; type: functional; details: Cancer cell lines
[13] = Cytotoxicity against human breast cancer cells assessed as cell growth inhibition after 48 hrs by SRB assay; type: functional; details: Cancer cell lines
[14] = Cytotoxicity against HEK293T cells assessed as reduction in cell viability at 0.33 to 100 uM after 72 hrs by MTT assay; type: toxicity, cell-based; details: human, hek-293t
[15] = Cytotoxicity against African green monkey Vero cells assessed as reduction in cell viability at 0.33 to 100 uM after 72 hrs by MTT assay; type: toxicity, cell-based; details: chlorocebus sabaeus
[16] = Cytotoxicity against human NCI60 cells assessed as cell growth inhibition after 48 hrs by SRB assay; type: functional; details: NCI60, 48 h
[17] = Stability in human liver microsomes at 4.75 uM preincubated for 5 mins followed by NADPH addition after 60 mins by HPLC analysis; type: ADME; details: 1 h
[18] = Stability in rat liver microsomes at 4.75 uM preincubated for 5 mins followed by NADPH addition after 60 mins by HPLC analysis; type: ADME; details: 1 h
[19] = Chemical stability of compound in pH 1 to 10 Hcl solution after 3 hrs by HPLC analysis; type: physicochemical; details: buffer, pH 1, 3 h
cells [20] = details: Homo sapiens, MCF7, 72 h
Description: Cytotoxicity against human MCF7 cells assessed as reduction in cell viability after 72 hrs by MTT assay

cells [21] = details: Homo sapiens, HCT-116, 72 h
Description: Cytotoxicity against human HCT116 cells assessed as reduction in cell viability after 72 hrs by MTT assay

CT26 = test: Potency index, ratio of (-)-gossypol IC50 to compound IC50 for mouse CT26 cells; type: functional

- IC50 [3]: 947 nM
- Ki [3]: 180 nM
- IC50 [4]: 825 nM
- Ki [4]: 341 nM
- Stability [17]: Stable
- Stability [18]: Stable
- Stability [19]: Stable
- IC50 (cells [20]): 4390 nM
- IC50 (cells [21]): 2750 nM
Structure (SMILES): COC(=O)CCCN/C=C1\C(=O)C(O)=C(C(C)C)c2cc(C)c(-c3c(C)cc4c(c3O)/C(=C/NCCCC(=O)OC)C(=O)C(O)=C4C(C)C)c(O)c21 (stereo in doubt; 16)
- IC50 [1]: 2390 nM
- IC50 [2]: 8390 nM
- Ratio IC50 (MCF7): 12
- GI50 [5]: 560 nM
- GI50 [6]: 480 nM
- GI50 [7]: 460 nM
- GI50 [8]: 600 nM
- GI50 [9]: 990 nM
- GI50 [10]: 590 nM
- GI50 [11]: 820 nM
- GI50 [12]: 410 nM
- GI50 [13]: 740 nM
- Activity [14]: Non-Toxic
- Activity [15]: Non-Toxic
- GI50 [16]: 100 to 1700 nM

- IC50 (cells [20]): 11500 nM
- IC50 (cells [21]): 17300 nM
Structure (SMILES): Cc1cc2c(c(O)c1-c1c(C)cc3c(c1O)/C(=C/NCCCCCCC(=O)O)C(=O)C(O)=C3C(C)C)/C(=C/NCCCCCCC(=O)O)C(=O)C(O)=C2C(C)C
- IC50 [1]: 19100 nM
- IC50 [2]: 2080 nM
- Ratio IC50 (CT26): 11
- Activity [14]: Non-Toxic
- Activity [15]: Non-Toxic
